Measured values from US9718809B2, “Bisarylsulfonamides useful in the treatment of inflammation and cancer” (Kancera AB, priority 2011, dated 2017).

What was measured:
[1] = tested on: F-2,6-P2 in NUGC-3 cells; experiment: Quantification of F-2,6-P2 (Van Schaftingen coupled enzyme assay) in NUGC-3 cells; format: cell-based; conditions: Homo sapiens; NUGC-3 cells seeded at 25 000 cells/well; read-out: IC50 based on quantification of F-2,6-P2
Source text: (§1) A method for quantification of F-2,6-P2 has been described by Van Schaftingen et al. (1982) Eur. J. Biochem. 129, 191-5. This sensitive assay is based on the potent activation of pyrophosphate dependent phosphofructokinase-1 (PPi-PFK) from potato tubers by F-2,6-P2. The use of a series of coupled enzymes leads to a consumption of NADH (nicotinamide adenine dinucleotide) that can be followed spectrophotometrically (an updated protocol is available in Van Schaftingen, (1984) Methods of Enzymatic Analysis (Bergmeyer, H. U., ed.), 3rd edn., vol. 6, pp. 335-341, Verlag Chemie, Weinheim). A protocol for measurements in 96-well microtiter plate format is also available (Bruni et al., (1989) Anal. Biochem. 178, 324-6).
(§2) The levels of F-2,6-P2 have been determined using the van Shaftingen assay as described in the protocol below, in six different cancer cell lines endogenously expressing varying levels of the different isoforms of PFK-2/BPase-2 (MCF-7, PANC-1, NUGC-3, SW480, SW620 and MIA PaCa-2). All reagents were purchased from commercial sources or prepared in-house.
Cell line C (NUGC-3, human gastric cancer cell line): NUGC-3 cells (JCRB0822), lot no. 04272009. Growth medium: RPMI1640, #R8758, Sigma-Aldrich; 10% FBS, Invitrogen, 10270-106 or Dulbecco's Modified Eagle's Medium, DMEM, VWR, LONZ12-604F; 10% FBS, Invitrogen, 10270-106. Cells were seeded at a concentration of ˜350 000 cells/mL in 100 μL growth medium (˜35 000 cells/well).
Starvation medium (cell lines A-F): DMEM/F12 without phenol red and glucose free, SVA, 991373; 0.25% FBS, Invitrogen, 10270-106.
Induction medium (cell lines A-F): DMEM/F12 without phenol red and glucose free, SVA, 991373; 0.25% FBS, Invitrogen, 10270-106 (same as starvation medium).
Cells were seeded in 96-well Corning Costar tissue culture plates (CLS3595, Sigma-Aldrich) using the concentrations specified above for the different cell lines A-F and incubated over night at 37° C. and 5% CO2. Row A in the plate was left empty and the cell lines added to rows B-H. Next day the growth medium was discarded and replaced with 100 μL starvation medium. The plates were incubated for 18 h at 37° C. and 5% CO2. After 18 h of starvation the cells were induced with 100 μL compound or control solutions. Compounds were either tested in two concentrations (50 μM and 10 μM) or in dose response curves starting from 50 μM. The final DMSO concentration in assay plates was 0.5%. Also a dose response curve of a reference inhibitor was included in row H on each plate. All compounds were tested in duplicate plates. Compounds (in 96 well CLS 3365, Sigma-Aldrich plates) were serial diluted in DMSO from 10 mM compound DMSO stock solutions with Janus (automated liquid handling workstation from PerkinElmer). Five μL were transferred to a Greiner deep well plate (736-0155, VWR) with 495 μL starvation medium. The final start concentration of compounds in the dilution plate was 100 μM, 1% DMSO. For compounds tested as single points, 10 mM compound solutions were diluted five fold in DMSO to 2 mM, followed by the transfer of 5 μL to separate dilution plates with 495 μL starvation medium. The final concentrations of compounds in these dilution plates were 100 or 20 μM, respectively, and final concentration of DMSO was 1%. The plates were incubated at 37° C. and 5% CO2 for 1 h, followed by the addition of 10 μL 20 mM D-glucose in starvation medium. Controls, with and without 1 mM glucose, were included in row B. The final assay volume was 210 μL per well. After 2 h of incubation at 37° C. and 5% CO2, the supernatants were discarded and the cells lysed by the addition of 25 μL 250 mM NaOH. The plates were incubated at 37° C. and 5% CO2 for 5 min followed by an addition of 75 μL MilliQ dH2O. The supernatants were further diluted with 210 μL MilliQ dH2O to a final concentration of 20 mM NaOH. 200 μL were transferred to NUNC 96-well plates (7322661, VWR) and the plates were sealed and stored at −20° C. until analysis. […]

[2] = tested on: F-2,6-P2 in SW480 cells; experiment: Quantification of F-2,6-P2 (Van Schaftingen coupled enzyme assay) in SW480 cells; format: cell-based; conditions: Homo sapiens, read-out: IC50 based on quantification of F-2,6-P2
Source text: as §1, §2
Cell line D (SW480, human colorectal adenocarcinoma): SW480 cells (ATCC-CCL-228), lot. no. 58471880. Cells were seeded at a concentration of ˜350 000 cells/mL in 100 μL growth medium (˜35 000 cells/well).
Growth medium (cell lines B-F): Dulbecco's Modified Eagle's Medium, DMEM, VWR, LONZ12-604F; 10% FBS, Invitrogen, 10270-106. […]

[3] = tested on: F-2,6-P2 in MIA PaCa-2 cells; experiment: Quantification of F-2,6-P2 (Van Schaftingen coupled enzyme assay) in MIA PaCa-2 cells; format: cell-based; conditions: Homo sapiens, read-out: IC50 based on quantification of F-2,6-P2
Source text: as §1, §2
Cell line F (MIA PaCa-2, human pancreatic carcinoma): MIA PaCa-2 cells (ATCC-CRL-1420), lot. no. 59270201. Cells were seeded at a concentration of ˜250 000 cells/mL in 100 μL growth medium (˜25 000 cells/well). […]

[4] = tested on: NMRI mice; experiment: In vivo tolerance in NMRI mice; parameters: species or system mouse; conditions: 25 and 45 mg/kg; for histological examinations of organs: intraperitoneal daily for seven days, adrenal gland, brain, cerebellum, heart, intestines, kidneys, liver, lungs, mesenteric lymph node, pancreas, spleen; for macro observations during and after treatment: intraperitoneal injections daily for seven days
Description: In vivo tolerance was tested in NMRI mice using Examples 157 and 183 in 2 doses (25 and 45 mg/kg), following intraperitoneal injections daily for seven days.

[5] = Cell toxicity, CellTiter-Blue Cell Viability Assay; conditions: human, MIA PaCa-2 pancreatic carcinoma cells, MIA PaCa-2 cells, 72 h culture, read-out: IC50 based on cell toxicity
Description: The CellTiter-Blue® Cell Viability Assay provides a homogeneous, fluorometric method for estimating the number of viable cells present in multi-well plates. It uses the indicator dye resazurin to measure the metabolic capacity of cells. Viable cells retain the ability to reduce resazurin into resorufin, which is highly fluorescent.
Stock solutions (10 or 100 mM in DMSO) of compounds were serially diluted 1:2 in 11 concentrations. 25 nL/well (100 mM stock) or 50 nL/well (10 mM stock) were acoustically dispensed in assay plates with EDC acoustic dispenser. Final starting conc. in assay was 20 μM (0.2% DMSO) or 100 μM (0.1% DMSO) for test compounds.
Cells (MIA-PaCa-2; pancreatic carcinoma) were seeded in assay plates (384-well black/clear, Greiner #781091) pre-dispensed with compounds, 25 μL/well, and cultured for 72 h. The cell concentration was 750 cells/well. After 72 h culture, Celltiter Blue reagent was added (5 μL/well) and the plates were incubated for 2 h. The plates were read in an Envision fluorescence reader with Ex544 nm/Em590 nm. Results were calculated as % cytotoxicity compared to background (cells treated with 0.2% DMSO).

[6] = In vitro metabolic stability in human liver microsomes; format: in vitro ADME; conditions: pH 7.4, pooled human liver microsomes 0.5 mg/ml, NADPH 1 mM, compound 3 μM
Description: Pooled human liver microsomes (final protein conc 0.5 mg/ml), 0.1 M phosphate buffer (pH 7.4) and NADPH (final conc 1 mM) were pre-incubated at 37° C. Example 183 (final conc 3 μM) was added to initiate the reaction. A control incubation where 0.1 M phosphate buffer (pH 7.4) was added instead of NADPH was done as a parallel experiment. After incubation for 0, 5, 10, 30 and 45 min with NADPH (for 45 min in the control incubation), MeCN containing internal standard was added to stop the reactions. The samples were centrifuged at 2500 rpm for 20 min at 4° C. before analysis using LC-MS/MS.

[7] = tested on: MIA PaCa-2 xenografts; experiment: Inhibition of tumour growth, MIA PaCa-2 xenografts in NMRI nude mice; format: in vivo, mouse; conditions: 45 mg/kg twice a day, 3 weeks
Description: FIG. 3 illustrates the effects of treatment with Example 183 on the growth of established xenografts from the human pancreatic carcinoma cell line MIA PaCa-2 in NMRI nude mice. NMRI nude mice were injected subcutaneously with MIA PaCa-2 cells. At an average tumor size of around 100 mm^3 mice were selected and randomized into treated (injected with substance) and control (vehicle treated) groups. Example 183 was administered at two doses, 25 mg/kg and 45 mg/kg, twice a day with 12 hours between administrations. From the day of inoculation the tumors were scored or measured three times a week using a digital caliper, and the body weights were determined at the same time points. The dose of injected substance was adjusted to the actual body weight of each animal. The dosing of the animals was in a period of 3 weeks.

[8] = Plasma exposure in NMRI nude mice; format: in vivo, mouse; conditions: 45 mg/kg, 0.5 h after last injection (day 21)
Description: In a related study using the same dosing schedule in NMRI nude mice, blood samples were drawn 0.5 h after last injection (day 21) to determine exposure of Example 183. Plasma, prepared by centrifugation of the blood, was frozen and kept at −20° C. Thawed plasma samples were precipitated with MeCN, centrifuged and the supernatants were analyzed by LC-MSMS. Standard samples, prepared by spiking blank plasma with Example 183, were used for quantification.

Row | SMILES | IC50 [1] [nM] | IC50 [2] [nM] | IC50 [3] [nM] | histological examinations of organs [4] | macro observations during and after treatment [4] | IC50 at 72 h [5] [nM] | half-life at 3 μM [6] [min] | microsomal CLint at 3 μM ([6]; read-out: intrinsic clearance) [µL/min/mg] | tumor growth compared to a vehicle treated group [7] | exposure of unbound compound in plasma versus in vitro IC50 value (MIA PaCa-2 cells) [8]
1 | COC(=O)c1ccc(NS(=O)(=O)c2cccc(-c3ccccc3O)c2)cc1O [Example 82, Methyl 2-hydroxy-4-{[(2′-hydroxybiphenyl-3-yl)sulfonyl]amino}benzoate] | 1080 | 6200 | – | – | – | – | – | – | – | –
2 | O=C(OCCCN1CCOCC1)c1ccc(NS(=O)(=O)c2c(Cl)sc(Cl)c2Cl)cc1O [Example 164, 3-Morpholin-4-ylpropyl 2-hydroxy-4-{[(2,4,5-trichloro-3-thienyl)sulfonyl]amino}benzoate] | – | 5400 | – | – | – | – | – | – | – | –
3 | COC(=O)c1ccc(NS(=O)(=O)c2cc(-c3cc(F)ccc3O)c(Cl)s2)cc1O [Example 157, methyl 4-({[5-chloro-4-(5-fluoro-2-hydroxyphenyl)-2-thienyl]sulfonyl}amino)-2-hydroxybenzoate] | – | – | 2000 | Specific lesions consistent with toxic damage were not observed | no sign of abnormal behavior or health problem | – | – | – | – | –
4 | O=C(OCCO)c1ccc(NS(=O)(=O)c2cccc(-c3cc(F)ccc3O)c2)cc1O [Example 183, 2-Hydroxyethyl 4-{[(5′-fluoro-2′-hydroxybiphenyl-3-yl)sulfonyl]amino}-2-hydroxybenzoate] | – | – | 200 | Specific lesions consistent with toxic damage were not observed | no sign of abnormal behavior or health problem | 2600 | 55 | 25 | significant inhibition (p<0.01) | exceeded the in vitro IC50 value
